Measurements reported in patent US10603265B2, “Skin whitening peptide agents” (INSTITUT CURIE, priority 2014, dated 2020).
Values joined by “and” are separate entries in the source; they are usually repeats but may differ in a detail not shown here. Equal entries are not always repeated. “Also recorded” adds a separate entry of the source.

Legend:
[1] = test system: MNT-1 cells; assay: Melanin assay on MNT-1 cells; assay type: cell-based, human; details: MNT1 melanocytes, 3 days, 10 μM peptide, OD 492 nm, normalized to H2O control
Method: FIG. 4: MNT1 melanocytes were cultured 3 days with 10 μM of QK-5 peptide (SEQ ID NO: 16) or H2O as a control. Melanin estimation was performed as previously described (Delevoye et al., J Cell Biol. 2009 Oct. 19; 187(2):247-64), and normalized to the control. QK-5 peptide incubation decreased the intracellular melanin content about 40±0.02%. Data are presented as mean±standard deviation. *; p value (two tailed)<0.05.
The skin whitening activity of the peptide may further be determined by measuring the melanin content of melanocytic cells such as MNT-1 cells, incubated with the peptide. For example, the assay may be carried out as follow: at day 1, 10^5 MNT-1 cells are seeded in 6-well plates; From day 2 to day 4, cells are grown in medium comprising 10 μM of peptides; at day 5, cells are disrupted by sonication in 50 mM Tris-HCl, pH 7.4, 2 mM EDTA, 150 mM NaCl, 1 mM dithiothreitol, and protease inhibitors. Pigment is pelleted at 20,000 g for 15 min at 4° C., rinsed once in ethanol/ether (1:1), and dissolved in 2 M NaOH/20% dimethylsulfoxide at 60° C.; Melanin content is measured as optical density at 492 nm.
At day 1, 10^5 cells were seeded in 6-well plates. From day 2 to day 4, cells were grown in medium containing 1 or 10 μg of peptides. Medium was changed every day. […] Melanin content was measured as optical density at 492 nm.

[2] = test system: 3D human reconstructed pigmented epidermis; assay: Melanin assay on reconstructed human pigmented epidermis; assay type: cell-based; details: 10 days, 30 μM peptide, OD 492 nm, normalized to control
Method: FIG. 10: Melanin quantitation on 3D human reconstructed pigmented epidermis incubated 10 days with 30 μM of QA-3 peptides or AK-3 peptides. Synthetic epidermis were removed from their insert and dissolved in 400 μl of Solvable (Perkin Elmer) for 1 h at 100° C. Melanin quantification was performed on 200 μl by measuring the optical density at 492 nm. Melanin quantifications were normalized to the control. Both QA-3 and AK-3 peptides decreased about 22.5±13% or 21±10% the melanin production by synthetic skin epidermis. Data are presented as mean±standard deviation. *; p value (two tailed)<0.1.
Reconstructed human epidermal of phototype VI (Sterlab) were received at day 10 and incubated with the manufacturer's growth medium supplemented from day 11 to day 21 with 30 μg of peptides. As recommended, medium was changed every day. At day 21, the epidermis was separated from the insert, digested by incubation in 400 μl of Solvable (PerkinElmer) at 98° C. for 1 h. Melanin content was measured as optical density at 492 nm.

[3] = target: T1, interaction of human AP-1 with human KIF13A (Homo sapiens, UniProt Q9H1H9); assay: AP-1 immunoprecipitation / KIF13A western blot, HeLa cell lysates incubated with peptides; assay type: biochemical; details: 1 μg peptide, vs control without peptide
T1 construct: incubating independently g of each 12 peptides with HeLa cell lysates (non pigmented cells); endogenous in cells; host or cells: HeLa cell lysate
T1 sequence (Q9H1H9 whole entry): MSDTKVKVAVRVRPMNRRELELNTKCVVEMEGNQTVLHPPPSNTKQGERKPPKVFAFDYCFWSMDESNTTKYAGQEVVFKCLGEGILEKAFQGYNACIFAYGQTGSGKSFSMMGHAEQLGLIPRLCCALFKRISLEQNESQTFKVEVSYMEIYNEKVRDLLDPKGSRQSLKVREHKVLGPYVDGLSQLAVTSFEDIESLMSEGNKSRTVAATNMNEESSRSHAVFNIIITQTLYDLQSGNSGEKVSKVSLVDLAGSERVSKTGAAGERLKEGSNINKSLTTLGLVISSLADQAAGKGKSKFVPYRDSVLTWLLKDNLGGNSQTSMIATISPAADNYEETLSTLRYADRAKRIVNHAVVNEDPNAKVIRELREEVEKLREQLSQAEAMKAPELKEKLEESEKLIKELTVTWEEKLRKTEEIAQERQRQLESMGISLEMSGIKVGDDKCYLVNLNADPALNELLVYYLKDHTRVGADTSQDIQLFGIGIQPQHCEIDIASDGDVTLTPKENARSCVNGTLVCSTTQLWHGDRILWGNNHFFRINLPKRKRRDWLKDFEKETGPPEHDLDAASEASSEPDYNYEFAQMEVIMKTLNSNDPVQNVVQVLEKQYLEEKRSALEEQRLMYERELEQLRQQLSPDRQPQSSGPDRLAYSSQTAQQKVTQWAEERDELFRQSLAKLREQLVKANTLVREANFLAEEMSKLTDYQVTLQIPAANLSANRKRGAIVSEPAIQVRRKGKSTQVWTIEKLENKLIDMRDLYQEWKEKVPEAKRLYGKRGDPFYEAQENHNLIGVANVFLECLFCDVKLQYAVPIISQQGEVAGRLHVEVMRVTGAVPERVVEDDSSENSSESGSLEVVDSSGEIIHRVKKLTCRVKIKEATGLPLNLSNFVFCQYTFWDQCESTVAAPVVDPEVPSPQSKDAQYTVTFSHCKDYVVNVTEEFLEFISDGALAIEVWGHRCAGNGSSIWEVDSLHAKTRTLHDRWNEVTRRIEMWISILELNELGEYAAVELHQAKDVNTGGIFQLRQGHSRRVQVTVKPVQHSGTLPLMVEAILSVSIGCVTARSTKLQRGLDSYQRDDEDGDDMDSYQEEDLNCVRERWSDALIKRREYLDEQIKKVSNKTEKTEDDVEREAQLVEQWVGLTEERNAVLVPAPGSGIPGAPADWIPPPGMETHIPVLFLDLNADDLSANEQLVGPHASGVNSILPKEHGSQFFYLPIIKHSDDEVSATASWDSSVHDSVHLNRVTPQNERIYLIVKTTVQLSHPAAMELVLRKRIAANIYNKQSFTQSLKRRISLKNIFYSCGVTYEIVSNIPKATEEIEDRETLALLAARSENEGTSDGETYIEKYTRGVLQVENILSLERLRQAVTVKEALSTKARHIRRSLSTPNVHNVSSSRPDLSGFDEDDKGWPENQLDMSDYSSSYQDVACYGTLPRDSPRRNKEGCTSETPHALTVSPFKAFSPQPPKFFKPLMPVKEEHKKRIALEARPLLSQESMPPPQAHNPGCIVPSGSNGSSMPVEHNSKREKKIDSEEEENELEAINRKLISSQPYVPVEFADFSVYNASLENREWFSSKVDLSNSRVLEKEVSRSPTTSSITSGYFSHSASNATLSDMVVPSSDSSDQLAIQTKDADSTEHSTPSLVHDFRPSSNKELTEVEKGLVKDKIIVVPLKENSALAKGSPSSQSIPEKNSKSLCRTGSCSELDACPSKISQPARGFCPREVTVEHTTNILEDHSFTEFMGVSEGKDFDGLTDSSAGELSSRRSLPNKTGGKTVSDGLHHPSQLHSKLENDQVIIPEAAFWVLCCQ
Method: FIG. 1: γ-adaptin subunit of the human AP-1 complex was immunoprecipitated from HeLa cell lysates in presence or not of 1 μg of the indicated 11 amino acids peptides (peptides AI, QT, GN, EK, EL, WQ; NY, QF, LM, FF, LK and RI: SEQ ID NO: 17, 28, 20, 1, 25, 27, 22, 21, 24, 23, 19 and 26, respectively) for 2 h at 4° C. under rotation. […] Molecular weight in kDa.
(§1) Cells at 80% of confluency were washed in cold PBS and lysed on ice in lysis buffer (50 mM Tris, 150 mM NaCl, 0.1% Triton X-100, 10 mM EDTA, pH 7.2, and protease inhibitor cocktail, Roche). Lysates were incubated overnight with 1 μg of peptides. Lysates were first precleared using protein G agarose beads for 1 h at 4° C. under rotation. Supernatants were collected and incubated with protein G agarose beads with 1 μg mouse monoclonal IgG2b anti-CD9 for 1 h at 4° C. under rotation. Precleared supernatants were incubated with beads coated earlier with 1 μg mouse monoclonal IgG2b anti-γ-adaptin for 2 h at 4° C. under rotation. As negative control, 1 μg mouse monoclonal IgG2b anti-CD9 was used to immunoprecipitate the lysate.
After five washes in cold lysis buffer and three washes in PBS, immunoprecipitated proteins bound to the beads were incubated in sample buffer with reducing agent, boiled for 10 min at 95° C., and fractionated by SDS-PAGE using Nupage (3-8%) Tris-acetate gels (Invitrogen). […]

[4] = target: T2, AP-1/KIF13A interaction (Homo sapiens, UniProt Q9H1H9); assay: AP-1 immunoprecipitation / KIF13A western blot, MNT-1 melanocyte lysates incubated with peptides; assay type: biochemical; details: MNT-1 melanocytic cell lysates, 1 μg peptide, KIF13A/AP-1 band intensity normalized to control
T2 construct: endogenous in cells; host or cells: MNT-1 (MNT1) human melanocytic cells
T2 sequence (Q9H1H9 whole entry): as above
Method: FIG. 2: γ-adaptin subunit of the human AP-1 complex was immunoprecipitated from melanocytes (MNT1) cell lysates in presence or not of 1 μg of the indicated peptides (peptides SS-5, EK-11 and QK-5: SEQ ID NO: 28, 1 and 16, respectively) for 2 h at 4° C. under rotation. […] EK-11 and SS-5 peptides were used as a positive and negative controls, respectively. Molecular weight in kDa.
FIG. 3: Intensity of the immunoprecipitated KIF13A and AP-1 bands shown in FIG. 2 were quantified using ImageJ. KIF13A intensity were divided by its corresponding AP-1 intensity and normalized to the control (lysates incubated without peptides, first lane).
as §1, with “lysate. […]” for “lysate.”

[5] = target: T3, co-localization of KIF13A with AP-1 (Homo sapiens, UniProt Q9H1H9); assay: Immunofluorescence colocalization of AP-1 with KIF13A in MNT-1 melanocytes; assay type: cell-based; details: MNT1 melanocytes, 3 days, 10 μM peptide, vs H2O control
T3 construct: endogenous in cells; host or cells: MNT-1 (MNT1) human melanocytic cells
T3 sequence (Q9H1H9 whole entry): as above
Method: FIG. 5: MNT1 melanocytes were seeded on glass coverslips and cultured 3 days with 10 μM of QK-5 peptide (SEQ ID NO: 16) or H2O as a control. Cells were fixed in cold methanol and co-stained using a rabbit anti-human KIF13A and a mouse anti-human γ-adaptin as primary antibodies and goat anti-rabbit or mouse coupled to Alexa-488 or 546 (Molecular Probes). Coverslips were mounted in Dabco (Invitrogen) medium and images were acquired on an Eclipse 80i Upright Microscope (Nikon) and deconvoluted. Images are maximum-intensity z projections of up to 15 3D image stacks acquired using ImageJ software. Analysis was performed by quantifying the intensity of overlapping KIF13A and AP-1 pixels and by normalizing them to the control. QK-5 peptide incubation on melanocytes decreased about 84±7% the co-localization of KIF13A with AP-1. Data are presented as mean±standard deviation. ***; p value (two tailed)<0.001.
MNT-1 cells grown on coverslips were incubated for three days in medium containing 10 μg of peptides. Coverslips were rinsed in PBS, fixed in 100% cold methanol for 30 sec, followed by incubation in PBS and 1 mg/ml BSA. […]
Colocalization analysis was performed using ImageJ software. […] Then identical area inside cells were defined and analyzed for quantification.

[6] = test system: MNT-1 cells; assay: Electron microscopy, grading of melanosome stages in MNT-1 cells; assay type: cell-based, human; details: MNT1 melanocytes, 3 days, 10 μM peptide, vs H2O control
Method: FIG. 6: MNT1 melanocytes were seeded on glass coverslips and cultured 3 days with 10 μM of QK-5 peptide (SEQ ID NO: 16; bottom panel) or H2O (top panel) as a control. Then cells were rapidly washed in DMEM at room temperature and fixed for 90 min with a mixture of 2.5% glutaraldehyde in 0.1 M cacodylate buffer for 90 min at 4° C., post-fixed with 1% OsO4/1.5% potassium ferrocyanide 45 min at 4° C., dehydrated in ethanol and embedded in Epon resin. Ultrathin (60-70 nm) sections were observed under a CM120 electron microscope (FEI company, Eindoven), equipped with a KeenView camera (Soft Imaging System; SIS, Germany). […] Scale bar: 2 μm.
FIG. 7: Melanosome stages were quantified based on their morphologies on MNT1 melanocytes treated as in FIG. 6. Stages I and II correspond to early non-pigmented melanosomes, melanin pigmentation is initiated in stage III, whereas stage IV is a fully mature and pigmented melanosome. Stages were counted and plotted as percentage of their total number.
Control and peptide-treated MNT-1 cells grown on coverslips for 3 days were fixed with 2.5% glutaraldehyde in 0.1M cacodylate buffer, pH 7.2 post-fixed with 1% OsO4 supplemented with 1.5% Potassium ferrocyanure, dehydrated in ethanol, and embedded in epon. Ultrathin sections were prepared with an Ulltracut UCT ultramicrotome (Leica) and observed under a CM120 electron microscope (FEI company, Eindoven) after counter-staining with uranyl acetate and lead citrate.
Grading of melanosomes stages from I to IV, based on morphology and melanin content, were done independently by two authors. The table below presents the criteria of analyses.

Substance	decrease of the intracellular melanin content [1]	decrease of melanin production / pigmentation of reconstructed epidermis [2]	decrease of the interaction of AP-1 with KIF13A [3]	decrease of the AP-1/KIF13A interaction [4]	decrease of the colocalization of KIF13A with AP-1 [5]	early melanosome Stages (I and II) [6]	number of Stage III melanosomes [6]	number of Stage IV (fully mature pigmented) melanosomes [6]
AVK [AK-3]	22±8% and ~21.3±8%	21±10%						
EPLNNLQVAVK (listed as Homo sapiens) [EK-11]			about 52.6±7%	57.5±8%				
QVAVK (listed as Homo sapiens) [QK-5]				56.1±6%	about 84±7%	without affecting the early Stages (I and II)	increased their number of Stage III; also recorded: increased the number of less mature and pigmented stages III	decreased their number of Stage IV melanosomes; also recorded: fewer dark-pigmented granules; also recorded: decreased the number of stage IV melanosomes
